Results reported in patent US20180021275A1, “METHOD OF TREATING IDIOPATHIC PULMONARY FIBROSIS” (MediciNova, Inc., priority 2014, published 2018).

Tests used:
Format in all cases: in vivo, C57BL/6 mice
[1] = Body weight changes in BLM-induced pulmonary fibrosis model mice; settings: for Body weight changes (%) on the day of sacrifice: percentage of baseline (day 0), mean ± SD
Method: Seven-week-old female C57BL/6 mice (17-21 g) were obtained from Japan SLC (Japan). Animals were housed and fed with normal diet (CE-2; CLEA Japan) under conventional conditions. All animals used in this study were cared following appropriate guidelines.
(§1) On day 0, twenty mice were intratracheally administered BLM (Nippon Kayaku, Japan) in 0.9% saline in a volume of 50 μL per animal using a Microsprayer® (Penn-Century, USA).
(§2) MN-001 and vehicle were administered by oral route in a volume of 10 mL/kg.
(§3) MN-001 was administered at doses of 30, 100, 300 mg/kg once daily.
(§4) The viability, clinical signs and behavior were monitored every day. Body weight was recorded daily after the day of starting the BLM administration (day 0). Animals were sacrificed by exsanguination through the abdominal aorta under pentobarbital sodium anesthesia (Kyoritsu, Japan).
Body weight was expressed as percentage body weight change from baseline (day 0).

[2] = system: BLM-induced pulmonary fibrosis model mice; test: Lung hydroxyproline content in BLM-induced pulmonary fibrosis model mice; settings: for Lung hydroxyproline contents / Lung Hyp (lung hydroxyproline content): sacrifice day 21, mean ± SD
Method: On day 0, twenty mice were intratracheally administered BLM (Nippon Kayaku, Japan) in 0.9% saline in a volume of 50 μL per animal using a Microsprayer® (Penn-Century, USA). MN-001 and vehicle were administered by oral route in a volume of 10 mL/kg. MN-001 was administered at doses of 30, 100, 300 mg/kg once daily. To quantify lung hydroxyproline content, frozen left lung samples (15-25 mg) were processed by an alkaline-acid hydrolysis method as follows. Lung samples were acid-hydrolyzed with 400 μL of 6N HCl at 121° C. for 20 minutes, and neutralized with 400 μL of 4N NaOH containing 10 mg/mL activated carbon. AC buffer (2.2M acetic acid/0.48M citric acid, 400 μL) was added to the samples, followed by centrifugation to collect the supernatant. A standard curve of hydroxyproline was constructed with serial dilutions of trans-4-hydroxy-L-proline (Sigma-Aldrich, USA) starting at 16 μg/mL. The prepared samples and standards (each 400 μL) were mixed with 400 μL chloramine T solution (Wako Pure Chemical Industries Japan) and incubated for 25 minutes at room temperature. The samples were then mixed with Ehrlich's solution (400 μL) and heated at 65° C. for 20 minutes to develop the color. After samples were cooled on ice and centrifuged to remove precipitates, the optical density of each supernatant was measured at 560 nm. The concentrations of hydroxyproline were calculated from the hydroxyproline standard curve. Lung hydroxyproline levels were expressed as […].

[3] = system: BLM-induced pulmonary fibrosis model mice; test: CT evaluation of lung density in BLM-induced pulmonary fibrosis model mice; settings: for Lung density on day 0 / Lung density on day 7: CT, mean ± SD; for Lung density on day 0: day 0 (before BLM administration and before treatment); for Lung density on day 7: day 7 after BLM (start of treatment)
Method: On day 0, twenty mice were intratracheally administered BLM (Nippon Kayaku, Japan) in 0.9% saline in a volume of 50 μL per animal using a Microsprayer® (Penn-Century, USA). MN-001 and vehicle were administered by oral route in a volume of 10 mL/kg. MN-001 was administered at doses of 30, 100, 300 mg/kg once daily. […] The mice were mounted on a holder and placed in the X-ray CT system (LCT-200, Aloka, Japan) under pentobarbital sodium (Kyoritu Seiyaku, Japan) anesthesia. The images were converted into DICOM format and analyzed with Onis Viewer (DigitalCore, Japan). Two section slides (upper: forth dorsal vertebra, lower: seventh dorsal vertebra) were determined from each scan data set, and eight regions of interest (ROI) were defined in the following areas: the right upper anterior and posterior regions, the left upper anterior and posterior region. The means of the intensity of the eight ROIs were defined as an individual's level of lung density.

[4] = system: BLM-induced pulmonary fibrosis model mice; test: Survival analysis in BLM-induced pulmonary fibrosis model mice
Method: as §1, §2, §3, §4

[5] = system: BLM-induced pulmonary fibrosis model mice; test: CT evaluation of lung density in BLM-induced pulmonary fibrosis model mice; settings: for Lung density on day 21: CT, mean ± SD
[6] = system: BLM-induced pulmonary fibrosis model mice; test: Histopathological analysis (Masson's trichrome staining, Ashcroft score) in BLM-induced pulmonary fibrosis model mice; settings: for Ashcroft score: sacrifice day 21, mean ± SD
Method: On day 0, twenty mice were intratracheally administered BLM (Nippon Kayaku, Japan) in 0.9% saline in a volume of 50 μL per animal using a Microsprayer® (Penn-Century, USA). MN-001 and vehicle were administered by oral route in a volume of 10 mL/kg. MN-001 was administered at doses of 30, 100, 300 mg/kg once daily. Right lung tissues prefixed in 10% neutral buffered formalin were embedded in paraffin and sectioned at […] sections were stained with Masson's trichrome staining Kit (Sigma, USA) according to the manufacturer's instructions. The degree of pulmonary fibrosis was evaluated using the Ashcroft score (Ashcroft, T., et al., J Clin Pathol, 1988; 41:467-70) for the quantitative histological analysis.

[7] = system: BLM-induced pulmonary fibrosis model mice; test: Cellular analysis of BALF (total cell number) in BLM-induced pulmonary fibrosis model mice; settings: for Total number of cells in BALF: sacrifice day 21, mean ± SD
Method: On day 0, twenty mice were intratracheally administered BLM (Nippon Kayaku, Japan) in 0.9% saline in a volume of 50 μL per animal using a Microsprayer® (Penn-Century, USA). MN-001 and vehicle were administered by oral route in a volume of 10 mL/kg. MN-001 was administered at doses of 30, 100, 300 mg/kg once daily. BALF samples were collected by flushing the lung via the trachea with sterile PBS three times (0.8 mL each). The first lavage was kept separate from the other two. BALF was centrifuged at 1,000×g for 3 minutes at 4° C. and the supernatant was collected and stored at −80° C. until use. The cell pellet from the first fraction and the remaining fractions of lavage fluid were pooled. Total cell number of BALF was counted with a hemocytometer.

[8] = system: BLM-induced pulmonary fibrosis in mice; test: Bleomycin (BLM)-induced pulmonary fibrosis in mice, therapeutic regimen, overall conclusion; settings: administered after detecting fibrosis (therapeutic regimen, from day 7 after BLM)
Method: As evidenced by Ashcroft score and lung hydroxyproline content, pulmonary fibrosis was established in all BLM-treated mice. […] In the present study, MN-001 was administered at day 7 after BLM administration. Since BLM induced fibrogenic reaction already at day 7, the treatment schedule in the present study is considered to be a “therapeutic regimen”. […] On day 0, twenty mice were intratracheally administered BLM (Nippon Kayaku, Japan) in 0.9% saline in a volume of 50 μL per animal using a Microsprayer® (Penn-Century, USA). MN-001 and vehicle were administered by oral route in a volume of 10 mL/kg. MN-001 was administered at doses of 30, 100, 300 mg/kg once daily.

[9] = MN-001 30 mg/kg oral once daily day 7 to 20, n = 8, 30 mg/kg
[10] = MN-001 100 mg/kg oral once daily day 7 to 20, n = 10, 100 mg/kg
[11] = MN-001 300 mg/kg oral once daily day 7 to 20, n = 10, 300 mg/kg
[12] = MN-001 30 mg/kg oral once daily day 7 to 20
[13] = MN-001 30 mg/kg oral once daily day 7 to 20, n = 8
[14] = MN-001 100 mg/kg oral once daily day 7 to 20
[15] = MN-001 100 mg/kg oral once daily day 7 to 20, n = 10
[16] = MN-001 300 mg/kg oral once daily day 7 to 20
[17] = MN-001 300 mg/kg oral once daily day 7 to 20, n = 10
[18] = MN-001 treatment, all doses, administered from day 7 after BLM

## CCCc1c(SCCCOc2ccc(C(C)=O)c(OCCCC(=O)O)c2CCC)ccc(C(C)=O)c1O [MN-001]
[1]; [9]
  Body weight changes (%) on the day of sacrifice: 104.8±3.7%
[1]; [10]
  Body weight changes (%) on the day of sacrifice: 100.9±10.6%
[1]; [11]
  Body weight changes (%) on the day of sacrifice: 104.2±4.1%
[1]; MN-001 treated groups (30, 100, 300 mg/kg), Bonferroni multiple comparison test
  Mean body weight loss on the day of sacrifice compared to the Vehicle group: no significant differences
[2]; MN-001 30 mg/kg group
  Lung hydroxyproline contents compared to the Vehicle group: significantly decreased
[2]; [12]
  Lung hydroxyproline contents: 49.8±7.9 μg/left lung
[2]; [13]
  Lung Hyp (lung hydroxyproline content): 49.8 ± 7.9 µg/left lung
[2]; MN-001 100 mg/kg group
  Lung hydroxyproline contents compared to the Vehicle group: significantly decreased
[2]; [14]
  Lung hydroxyproline contents: 56.1±10.1 μg/left lung
[2]; [15]
  Lung Hyp (lung hydroxyproline content): 56.1 ± 10.1 µg/left lung
[2]; [16]
  Lung hydroxyproline contents: 56.4±12.7 μg/left lung
[2]; [17]
  Lung Hyp (lung hydroxyproline content): 56.4 ± 12.7 µg/left lung
[2]; MN-001 300 mg/kg treatment
  Lung hydroxyproline content compared to the Vehicle group: tended to decrease
[2]; [18]
  Lung hydroxyproline content compared to the Vehicle group at day 21 (summary): significant reduction or a decreasing trend
[3]; MN-001 30 mg/kg group, n = 8
  Lung density on day 0: −445 ± 17
  Lung density on day 7: −375 ± 77
[3]; MN-001 100 mg/kg group, n = 10
  Lung density on day 0: −444 ± 18
  Lung density on day 7: −343 ± 84
[3]; MN-001 300 mg/kg group, n = 10
  Lung density on day 0: −423 ± 19
  Lung density on day 7: −415 ± 83
[3]; MN-001 treated groups vs Vehicle
  Lung density, visually observed in the graphs (FIGS. 1.1 to 1.3): downward trend
[4]; MN-001 30 mg/kg group, during the treatment period (Vehicle: two out of 10)
  Mice died before reaching day 21: Two out of 10
[4]; MN-001 treated groups (30, 100, 300 mg/kg)
  Survival rate compared to the Vehicle group: no significant differences
[5]; [13]
  Lung density on day 21: −186 ± 84
[5]; [15]
  Lung density on day 21: −200 ± 122
[5]; [17]
  Lung density on day 21: −260 ± 107
[5]; any of the MN-001 treated groups, statistical comparison
  Lung density on day 0, 7 and 21 compared to the Vehicle group: no significant differences
[6]; [9]
  Ashcroft score: 2.0±0.7
[6]; MN-001 30 mg/kg treatment
  Ashcroft score compared to the Vehicle group: tended to decrease
[6]; [10]
  Ashcroft score: 2.2±0.8
[6]; MN-001 100 mg/kg treatment
  Ashcroft score compared to the Vehicle group: tended to decrease
[6]; MN-001 300 mg/kg group
  Ashcroft score compared to the Vehicle group: significantly decreased
[6]; [11]
  Ashcroft score: 1.8±0.6
[6]; [18]
  Ashcroft score compared to the Vehicle group at day 21 (summary): significant reduction or a decreasing trend
[7]; [12]
  Total number of cells in BALF: 65.1±26.1 ×10^5 cells
[7]; [14]
  Total number of cells in BALF: 124.4±127.3 ×10^4 cells
[7]; [16]
  Total number of cells in BALF: 76.0±35.0 ×10^5 cells
[7]; any MN-001 treated groups
  Total number of cells in BALF compared to the Vehicle group: no significant differences
[8]
  Anti-fibrogenic effect: significant anti-fibrogenic effect
